Like-named read-outs stand apart in the source and are kept apart here.
Key:
Assay in all cases: Glasshouse assay for herbicidal activity (pre- and post-emergence), percentage phytotoxicity
Type in all cases: in vivo
[1] = system: Alopecurus myosuroides (ALOMY); details: Alopecurus myosuroides
Method in brief: (§1)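 Percent injury was estimated by eye on a scale where 0% means no damage and 100% complete damage. Ratings came 15 DAA post-emergence and 20 DAA pre-emergence, with plants held under 16 h light and 65% humidity at 24/18 °C or 20/16 °C day/night.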

Lolium perenne (LOLPE) = details: Lolium perenne
Method in brief: as §1

Avena fatua (AVEFA) = details: Avena fatua
Method in brief: as §1

[2] = system: Echinochloa crus-galli (ECHCG); details: Echinochloa crus-galli
Method in brief: as §1

[3] = post-emergence, 360 h, 250 g/ha, post-emergence, 15 DAA, visual assessment (100%=total damage, 0%=no damage), read-out: Post-emergence herbicidal activity (percentage phytotoxicity) ALOMY POST
[4] = pre-emergence, 480 h, 250 g/ha, pre-emergence, 20 DAA, visual assessment (100%=total damage, 0%=no damage), read-out: Pre-emergence herbicidal activity (percentage phytotoxicity) ALOMY PRE
[5] = post-emergence, 360 h, 250 g/ha, post-emergence, 15 DAA, visual assessment (100%=total damage, 0%=no damage), read-out: Post-emergence herbicidal activity (percentage phytotoxicity) LOLPE POST
[6] = pre-emergence, 480 h, 250 g/ha, pre-emergence, 20 DAA, visual assessment (100%=total damage, 0%=no damage), read-out: Pre-emergence herbicidal activity (percentage phytotoxicity) LOLPE PRE
[7] = post-emergence, 360 h, 250 g/ha, post-emergence, 15 DAA, visual assessment (100%=total damage, 0%=no damage), read-out: Post-emergence herbicidal activity (percentage phytotoxicity) AVEFA POST
[8] = pre-emergence, 480 h, 250 g/ha, pre-emergence, 20 DAA, visual assessment (100%=total damage, 0%=no damage), read-out: Pre-emergence herbicidal activity (percentage phytotoxicity) AVEFA PRE
[9] = post-emergence, 360 h, 250 g/ha, post-emergence, 15 DAA, visual assessment (100%=total damage, 0%=no damage), read-out: Post-emergence herbicidal activity (percentage phytotoxicity) ECHCG POST
[10] = pre-emergence, 480 h, 250 g/ha, pre-emergence, 20 DAA, visual assessment (100%=total damage, 0%=no damage), read-out: Pre-emergence herbicidal activity (percentage phytotoxicity) ECHCG PRE

Row | SMILES | pest or weed control at 250 g/ha [1, 3] [%] | pest or weed control at 250 g/ha [1, 4] [%] | pest or weed control at 250 g/ha (Lolium perenne (LOLPE); [5]) [%] | pest or weed control at 250 g/ha (Lolium perenne (LOLPE); [6]) [%] | pest or weed control at 250 g/ha (Avena fatua (AVEFA); [7]) [%] | pest or weed control at 250 g/ha (Avena fatua (AVEFA); [8]) [%] | pest or weed control at 250 g/ha [2, 9] [%] | pest or weed control at 250 g/ha [2, 10] [%] | other results
1 | Cc1cc(-c2ccc(F)cn2)cc(C)c1C1C(=O)CC(CC(=O)N(C)C(C)C)C1=O (centres unmarked) [Compound B396] | – | – | – | – | – | – | – | – | pest or weed control at 250 g/ha ([1]; post-emergence, 360 h, Rate 250 g/ha, post-emergence, visual assessment 15 DAA, 100%=total damage, 0%=no damage, read-out: Post-emergence herbicidal activity (percentage phytotoxicity) ALOMY POST): 90%; pest or weed control at 250 g/ha ([1]; pre-emergence, 480 h, Rate 250 g/ha, pre-emergence, visual assessment 20 DAA, 100%=total damage, 0%=no damage, read-out: Pre-emergence herbicidal activity (percentage phytotoxicity) ALOMY PRE): 100%; pest or weed control at 250 g/ha (Lolium perenne (LOLPE); post-emergence, 360 h, Rate 250 g/ha, post-emergence, visual assessment 15 DAA, 100%=total damage, 0%=no damage, read-out: Post-emergence herbicidal activity (percentage phytotoxicity) LOLPE POST): 90%; pest or weed control at 250 g/ha (Lolium perenne (LOLPE); pre-emergence, 480 h, Rate 250 g/ha, pre-emergence, visual assessment 20 DAA, 100%=total damage, 0%=no damage, read-out: Pre-emergence herbicidal activity (percentage phytotoxicity) LOLPE PRE): 100%; pest or weed control at 250 g/ha (Avena fatua (AVEFA); post-emergence, 360 h, Rate 250 g/ha, post-emergence, visual assessment 15 DAA, 100%=total damage, 0%=no damage, read-out: Post-emergence herbicidal activity (percentage phytotoxicity) AVEFA POST): 100%; pest or weed control at 250 g/ha (Avena fatua (AVEFA); pre-emergence, 480 h, Rate 250 g/ha, pre-emergence, visual assessment 20 DAA, 100%=total damage, 0%=no damage, read-out: Pre-emergence herbicidal activity (percentage phytotoxicity) AVEFA PRE): 100%; pest or weed control at 250 g/ha ([2]; post-emergence, 360 h, Rate 250 g/ha, post-emergence, visual assessment 15 DAA, 100%=total damage, 0%=no damage, read-out: Post-emergence herbicidal activity (percentage phytotoxicity) ECHCG POST): 100%; pest or weed control at 250 g/ha ([2]; pre-emergence, 480 h, Rate 250 g/ha, pre-emergence, visual assessment 20 DAA, 100%=total damage, 0%=no damage, read-out: Pre-emergence herbicidal activity (percentage phytotoxicity) ECHCG PRE): 100%
2 | COCCCNC(=O)CC1CC(=O)C(c2c(C)cc(-c3ncc(Cl)cc3F)cc2C)C1=O (centres unmarked) [Compound B128] | 100 | 100 | 100 | 100 | 100 | 100 | 100 | 100 | –
3 | C#CC(C)N(C)C(=O)CC1CC(=O)C(c2c(C)cc(C)cc2C)C1=O (single isomer, unassigned) [Compound A183] | – | – | – | – | – | – | – | – | pest or weed control at 250 g/ha ([1]; post-emergence, 360 h, post-emergence, 250 g/ha, 15 DAA, visual score (100%=total damage; 0%=no damage), read-out: ALOMY POST herbicidal activity (percentage phytotoxicity)): 70%; pest or weed control at 250 g/ha ([1]; pre-emergence, 480 h, pre-emergence, 250 g/ha, 20 DAA, visual score (100%=total damage; 0%=no damage), read-out: ALOMY PRE herbicidal activity (percentage phytotoxicity)): 50%; pest or weed control at 250 g/ha (Lolium perenne (LOLPE); post-emergence, 360 h, post-emergence, 250 g/ha, 15 DAA, visual score (100%=total damage; 0%=no damage), read-out: LOLPE POST herbicidal activity (percentage phytotoxicity)): 70%; pest or weed control at 250 g/ha (Lolium perenne (LOLPE); pre-emergence, 480 h, pre-emergence, 250 g/ha, 20 DAA, visual score (100%=total damage; 0%=no damage), read-out: LOLPE PRE herbicidal activity (percentage phytotoxicity)): 90%; pest or weed control at 250 g/ha (Avena fatua (AVEFA); post-emergence, 360 h, post-emergence, 250 g/ha, 15 DAA, visual score (100%=total damage; 0%=no damage), read-out: AVEFA POST herbicidal activity (percentage phytotoxicity)): 70%; pest or weed control at 250 g/ha (Avena fatua (AVEFA); pre-emergence, 480 h, pre-emergence, 250 g/ha, 20 DAA, visual score (100%=total damage; 0%=no damage), read-out: AVEFA PRE herbicidal activity (percentage phytotoxicity)): 0%; pest or weed control at 250 g/ha ([2]; post-emergence, 360 h, post-emergence, 250 g/ha, 15 DAA, visual score (100%=total damage; 0%=no damage), read-out: ECHCG POST herbicidal activity (percentage phytotoxicity)): 80%; pest or weed control at 250 g/ha ([2]; pre-emergence, 480 h, pre-emergence, 250 g/ha, 20 DAA, visual score (100%=total damage; 0%=no damage), read-out: ECHCG PRE herbicidal activity (percentage phytotoxicity)): 80%
4 | C/C=C/c1cc(C)c(C2C(=O)CC(CC(=O)N3CCOCC3)C2=O)c(CC)c1 (centres unmarked) [Compound B137] | 100 | 20 | 100 | 50 | 100 | 50 | 90 | 60 | –

Source: patent publication US10206394B2, “Herbicidal compounds” (Syngenta Participations AG, priority 2014, dated 2019)
